Earlier results, collected in patent publication US10039772B2, “Methods and compositions for treating alcohol use disorders” (priority 2015, dated 2018).

Tested on: 11β-HSD1, 11β-HSD2
Conditions: 11β-HSD isozyme specificity per cited reference; cited from earlier work
For `N#Cc1cccnc1N1CCN(CC(=O)NC2C3CC4CC(C3)CC2C4)CC1` (centres unmarked) [Number 58], the Specificity is listed as 11β- HSD1 > 2. For `COc1ccc(C(=O)N2CCCC(c3ccccc3)CC2)cc1` (centres unmarked) [Number 107], the Specificity is given as 11β- HSD1 > 2. For `O=C(N[C@H]1C2CC3CC1C[C@@](O)(C3)C2)c1cnc(N2CCOCC2)nc1C1CC1` [Number 48], the Specificity is listed as 11β- HSD1 > 2. In the case of `O=C(O)C[C@H]1CC2(CCN(C(=O)NC3C4CC5CC(C4)CC3C5)CC2)c2c(Br)cccc21` (some centres unmarked) [Number 77], the Specificity is listed as 11β- HSD1 > 2. In the case of `C[C@H](NC1=NC(=O)[C@@](C)(C(F)(F)F)S1)c1ccccc1F` [Number 11], the Specificity is given as 11β- HSD1 > 2. In the case of `Cc1c(Cl)cccc1S(=O)(=O)Nc1nc(CC(=O)N2CCN(C)CC2)cs1` [Number 5], the Specificity is given as 11β- HSD1 > 2. In the case of `CC(C)(C)N1CCN(c2ccc(N3CCN(C(=O)N[C@H]4C5CC6CC4C[C@@](C(N)=O)(C6)C5)c4ccccc43)nc2)CC1` [Number 101], the Specificity is given as 11β- HSD1 > 2. For `O=C(N1CCC2(CCCCC2)C1)C1(c2ccccc2)CC1` [Number 96], the Specificity is listed as 11β- HSD1 > 2. For `CCCCCC12CCC(c3nnc(-c4ccccc4C(F)(F)F)n3C)(CC1)CC2` [Number 28], the Specificity is listed as 11β- HSD1 > 2. For `Cc1c(Cl)cccc1S(=O)(=O)Nc1nc(CCN2CCOCC2=O)cs1` [Number 7, 3-chloro-2-methyl-N-{4-[2-(3-oxo-4-morpholinyl)ethyl]-1,3-thiazol-2-yl}benzenesulfonamide], the Specificity is given as 11β- HSD1 > 2. In the case of `Cn1c(-c2ccccc2C(F)(F)F)nnc1C12CCC(c3nc(-c4ccc(C(O)C(F)(F)F)cc4)no3)(CC1)CC2` (centres unmarked) [Number 31], the Specificity is given as 11β- HSD1 > 2. For `CCC1(CC)OC(N[C@@H](C)c2ccccc2C(F)(F)F)=NC1=O` [Number 9], the Specificity is given as 11β- HSD1 > 2. In the case of `CCN(CC)C(=O)Cc1csc(NS(=O)(=O)c2cccc(Cl)c2C)n1` [Number 6], the Specificity is listed as 11β- HSD1 > 2. For `COc1c(-c2nnc(-c3ccccc3C(F)(F)F)n2C)ccc2ccc(Cl)cc12` [Number 24], the Specificity is listed as 11β- HSD1 > 2. For `O=C(OC1C2CC3CC(C2)CC1C3)N1CCCCC1` (centres unmarked) [Number 78], the Specificity is listed as 11β- HSD1 > 2. In the case of `Cn1c(N2CCN(S(=O)(=O)c3ccc(C(C)(C)C)cc3)CC2)nc2ccccc21` [Number 125], the Specificity is listed as 11β- HSD1 > 2. In the case of `CC1(C)CCN([C@H]2C3CC4CC2C[C@@](O)(C4)C3)C(=O)c2cnn(-c3ccc(Cl)cc3)c21` [Number 110], the Specificity is listed as 11β- HSD1 > 2. In the case of `COc1cc(C(=O)N2CCC(n3c(=O)[nH]c4ccccc43)CC2)ccc1C` [Number 8], the Specificity is given as 11β- HSD1 > 2. In the case of `Cn1c(-c2ccccc2)nnc1C12CC3CC(CC(C3)C1)C2` [Number 23], the Specificity is given as 11β- HSD1 > 2. For `Cc1c(Cl)cccc1S(=O)(=O)N1CCC[C@@H](C(=O)N[C@H]2C[C@@H]3CC[C@@]2(C)C3(C)C)C1` [Number 87], the Specificity is listed as 11β- HSD1 > 2. In the case of `CC(C)(C)n1ncc2c1CCCN([C@H]1C3CC4CC1C[C@@](O)(C4)C3)C2=O` [Number 109], the Specificity is listed as 11β- HSD1 > 2. For `O=C(O)CC1(CC(=O)NCc2ccc(F)cc2Cl)CCCC1` [Number 93], the Specificity is given as 11β- HSD1 > 2. For `CCN(C(=O)c1ccc([C@@](C)(O)C(F)(F)F)cc1)C1CCCCC1` [Number 16], the Specificity is given as 11β- HSD1 > 2. In the case of `Cc1ccc(-c2cccc(C(=O)N3CCCC(C)(C)C3)n2)cc1F` [Number 71], the Specificity is given as 11β- HSD1 > 2. For `COc1ccc(-c2cnc(N3CCN(C(=O)N4CCC(c5cn[nH]c5)C4)c4ccccc43)nc2)cc1` (centres unmarked) [Number 100], the Specificity is listed as 11β- HSD1 > 2. For `Cn1cnnc1SCC(=O)C12CC3CC(CC(C3)C1)C2` [Number 124], the Specificity is listed as 11β- HSD1 > 2. In the case of `O=C(Nc1ccc(C(=O)N2CCC[C@H]3CCCC[C@@H]32)c2ccccc12)c1ccc(Cl)cc1Cl` [Number 106], the Specificity is listed as 11β- HSD1 > 2. In the case of `Cc1cc(N)nc(NS(=O)(=O)c2ccc(-c3ccc(C#N)cc3)cc2)c1` [Number 36], the Specificity is listed as 11β- HSD1 > 2. For `C[C@H](NC1=NC(=O)[C@@](C)(C(C)(C)O)S1)c1ccc(F)cc1` [Number 10], the Specificity is listed as 11β- HSD1 > 2. In the case of `O=C(CN1CCN(c2ccc(C(F)(F)F)cn2)CC1)NC1C2CC3CC1CC(O)(C3)C2` (centres unmarked) [Number 59], the Specificity is listed as 11β- HSD1 > 2. In the case of `CCCSc1ncccc1C(=O)NC1CCCCC1` [Number 46], the Specificity is listed as 11β- HSD1 > 2. In the case of `C[C@@H]1CN(c2ccc(F)cc2C(F)(F)F)CCN1S(=O)(=O)c1cccc([C@@](C)(O)C(F)(F)F)c1` [Number 43], the Specificity is given as 11β- HSD1 > 2. For `CCN1CCN(C(=O)C23CC4CC(C2)CC(c2ccc(C)cc2)(C4)C3)CC1` [Number 111], the Specificity is given as 11β- HSD1 > 2. For `CCN(CC)C(=O)C1CCCN(S(=O)(=O)c2cccc(Cl)c2C)C1` (centres unmarked) [Number 84], the Specificity is given as 11β- HSD1 > 2. For `CS(=O)(=O)NCCC(=O)N1CCC(c2cc(C(=O)N3CCC[C@H]4CCCC[C@H]43)cs2)CC1` [Number 114], the Specificity is listed as 11β- HSD1 > 2. In the case of `CC(C)(C(=O)N1CCC(c2c[nH]c3ncccc23)C1)c1ccc(Cl)cc1` (centres unmarked) [Number 98], the Specificity is given as 11β- HSD1 > 2. In the case of `COc1ccc2nc(NS(=O)(=O)c3ccccc3)sc2c1` [Number 115], the Specificity is given as 11β- HSD1 > 2. In the case of `Cc1c(Cl)cccc1Oc1cccn2c(C34CCC(O)(CC3)CC4)nnc12` [Number 72], the Specificity is given as 11β- HSD1 > 2. In the case of `Cc1nc2c(Cl)c(NS(=O)(=O)c3cc(Cl)ccc3Cl)ccc2s1` [Number 117], the Specificity is given as 11β- HSD1 > 2. In the case of `O=C(NC1C2CC3CC(C2)CC1C3)N1CCCCC1` (centres unmarked) [Number 76], the Specificity is listed as 11β- HSD1 > 2. For `CC(C)(CC(=O)NC1CC1)CC(=O)N[C@H]1C2CC3CC1C[C@@](O)(C3)C2` [Number 94], the Specificity is given as 11β- HSD1 > 2. For `COc1ccc(C(=O)N2CCC(c3c[nH]c4ccccc34)C2)c(C)c1` (centres unmarked) [Number 97], the Specificity is listed as 11β- HSD1 > 2. For `CC(C)(Cc1ccc(Cl)cc1)C(=O)NC12CCC(C(N)=O)(CC1)CC2` [Number 61], the Specificity is given as 11β- HSD1 > 2. For `O[C@]12CC[C@](c3nnc4c(Oc5ccccc5Cl)cccn43)(CC1)C2` [Number 75], the Specificity is given as 11β- HSD1 > 2. For `O=C(CN1C(C(=O)c2ccccc2)=C(O)c2ccccc2S1(=O)=O)c1ccccc1` [Number 91], the Specificity is given as 11β- HSD1 > 2. In the case of `CC1CCN(C(=O)c2cccc(CSc3c(Cl)cccc3Cl)n2)CC1` [Number 68], the Specificity is listed as 11β- HSD1 > 2. For `C[C@@H]1CC(n2c(=O)[nH]c3ccccc32)C[C@@H](C)N1C(=O)c1cc(Cl)c(N)c(Cl)c1` (some centres unmarked) [Number 55], the Specificity is listed as 11β- HSD1 > 2. In the case of `F[C@H]1C[C@](c2ccc(Cl)cc2)(c2nnc(C3CC3)n2C2CC2)C1` [Number 25], the Specificity is given as 11β- HSD1 > 2. For `N#Cc1ccc(-c2ccc(S(=O)(=O)Nc3cccc(CO)n3)cc2)cc1` [Number 39], the Specificity is given as 11β- HSD1 > 2. In the case of `O=C(Nc1ccc2scnc2c1)c1cc(Cl)cc(Cl)c1` [Number 118], the Specificity is listed as 11β- HSD1 > 2. For `CC1(C)[C@@H](O)CC[C@]2(C)[C@H]3C(=O)C=C4[C@@](C)(CC[C@@]5(C)CC[C@@]6(C)C[C@@]45OC6=O)[C@]3(C)CC[C@@H]12` [Number 248], the Specificity is listed as 11β- HSD1 > 2. In the case of `COc1cccc(C(=O)CSc2nnc(C)s2)c1` [Number 123], the Specificity is listed as 11β- HSD1 > 2. For `CSc1nc(N2C[C@@H]3[C@H](C2)[C@H]3C(=O)O)ccc1C(=O)NC1C2CC3CC(C2)CC1C3` (some centres unmarked) [Number 50], the Specificity is given as 11β- HSD1 > 2. For `CC(=O)O[C@H]1CC[C@]2(C)[C@H]3C(=O)C=C4[C@H]5C[C@@](C)(NS(C)(=O)=O)CC[C@]5(C)CC[C@@]4(C)[C@]3(C)CC[C@H]2C1(C)C` [Number 251], the Specificity is listed as 11β- HSD1 > 2. For `O=C(N1CCC(c2c[nH]cn2)CC1)N1CCCc2ccccc21` [Number 99], the Specificity is listed as 11β- HSD1 > 2. In the case of `O=C(N[C@H]1C2CC3CC1C[C@@](O)(C3)C2)c1cnc(N[C@H]2CCOC2)nc1C1CCCC1` [Number 49], the Specificity is listed as 11β- HSD1 > 2. For `O=C(O)CC1C2CC3CC(C2)CC1C3` (centres unmarked) [Number 73], the Specificity is listed as 11β- HSD1 > 2. In the case of `CN(C)C(=O)c1ccc(COCC(=O)C23CC4CC(CC(C4)C2)C3)cc1` [Number 121], the Specificity is listed as 11β- HSD1 > 2. In the case of `CCN(CC)C(=O)Cc1cccc(NS(=O)(=O)c2cccc(Cl)c2C)n1` [Number 34], the Specificity is listed as 11β- HSD1 > 2. For `Cc1c(Cl)cccc1S(=O)(=O)NCc1ccc(C(=O)N2C[C@@H](C)O[C@@H](C)C2)cc1` [Number 82], the Specificity is given as 11β- HSD1 > 2. For `C[C@@H]1CN(c2ncc(F)cc2C(F)(F)F)CCN1S(=O)(=O)c1cccc(-n2cncn2)c1` [Number 42], the Specificity is given as 11β- HSD1 > 2. For `CC(C)(Oc1ccc(Cl)cc1)C(=O)Nc1nnn[nH]1` [Number 116], the Specificity is given as 11β- HSD1 > 2.

Same assay, conditions: cited from earlier work
For `CC(C(=O)NC1C2CC3CC1CC(O)(C3)C2)N1CCN(c2ccc(C(F)(F)F)cn2)CC1` (centres unmarked) [Number 66], the Specificity is listed as 11β- HSD1 > 2. In the case of `Cc1c(Cl)cccc1S(=O)(=O)N1CCCC[C@@H]1C(=O)N[C@H]1C2CC3CC1C[C@](O)(C3)C2` [Number 89], the Specificity is given as 11β- HSD1 > 2. For `CC1CCN(C(=O)c2ccc(CSc3ccc(Cl)cc3)cc2)CC1` [Number 67], the Specificity is given as 11β- HSD1 > 2. In the case of `CC(C)[C@]1(C)SC(N[C@H]2C[C@@H]3CC[C@H]2C3)=NC1=O` [Number 13], the Specificity is listed as 11β- HSD1 > 2. In the case of `CCCSc1nc(N2CCC[C@@H](CC(=O)O)C2)ccc1C(=O)NC1CCCCC1` [Number 47], the Specificity is listed as 11β- HSD1 > 2. For `O=C(Nc1cccc(C(=O)N2CCC[C@H]3CCCC[C@@H]32)c1)c1ccccc1` [Number 104], the Specificity is given as 11β- HSD1 > 2. In the case of `CO[C@@H]1C[C@H]2CC[C@@H](C1)N2S(=O)(=O)c1ccc(C(C)(C)C)cc1` [Number 32], the Specificity is given as 11β- HSD1 > 2. In the case of `CC1(C)OC(N[C@@H](CCO)c2ccc(F)cc2)=NS(=O)(=O)C1(C)C` [Number 103], the Specificity is given as 11β- HSD1 > 2. In the case of `N#Cc1ncccc1CSc1nc(O)c(C#N)c2c1COCC2` [Number 70], the Specificity is given as 11β- HSD1 > 2. For `C[C@](O)(c1ccc(C(=O)N(C2CC2)C2CCC(CCC(N)=O)(c3ccccc3)CC2)cc1)C(F)(F)F` (some centres unmarked) [Number 19], the Specificity is given as 11β- HSD1 > 2. For `O=S1(=O)N=C(NC2CCCCC2)O[C@H]2CCCC[C@H]21` [Number 102], the Specificity is given as 11β- HSD1 > 2. For `C[C@](O)(c1ccc(C(=O)N(C2CC2)C2CCN(CC3(C(N)=O)CC3)CC2)cc1)C(F)(F)F` [Number 18], the Specificity is listed as 11β- HSD1 > 2.
